Usually EC50 stands for the concentration needed to bring the measured effect to its halfway point. As usually defined, the IC50 is the concentration that gives 50% inhibition.

Where two headings read alike, the source gives them in different places.

EC50 and IC50 data for 30 compounds are collected here from patent US9856262B2, “Analogues of 4H-pyrazolo[1,5-a] benzimidazole compound as PARP inhibitors” (HUBEI BIO-PHARMACEUTICAL INDUSTRIAL TECHNOLOGICAL INSTITUTE …, priority 2014, dated 2018).

In one experiment the test system is HCC1937 cells. As to the kind of experiment: Cellular PARylation assay. The experiment is classed as cell-based. The procedure: Cellular PARylation Assay
HCC1937 cells were planted into 96 well plates at 4×10^4 cells/well and incubated at 37° C. in an incubator overnight. After being treated with a test compound for 30 min, cells were then treated with 1 mM H2O2 for 10 min. The cells were washed with 200 ul pre-chilled PBS twice and fixed with 100 ul pre-chilled methanol/acetone (7:3) on ice for 30 min. After being air-dried, the plates were blocked using PBS-Tween blocking solution (0.05%) with dissolved 5% nonfat dry milk for 30 min at room temperature. The cells were incubated with anti-PAR antibody 10H (1:100) at room temperature for 1 hour followed by washing with PBS-Tween20 for 3 times; and then added into a blocking solution including goat anti-mouse fluorescein isothiocyanate (FITC)-coupled secondary antibody and 1 μg/mL DAPI to incubate away from light at room temperature for 1 hour. After being washed with PBS-Tween20 for 3 times, the plate was analyzed with a fluorescence microplate counter (Flexstation III, Molecular Device).

The target in the next experiment is T1, PARP-1 (Homo sapiens, UniProt P09874).
T1 construct: purchased
As to the kind of experiment: PARP enzymatic assay (HT Universal Colorimetric PARP1 Assay Kit). The experiment is classed as biochemical. The conditions noted are these: read-out: PARP-1 enzymatic inhibition IC50. The procedure: PARP Enzymatic Assay (Following the Manual of HT Universal Colorimetric PARP1 Assay Kit).
Histone proteins were coated on a 96-well plate and incubated overnight at 4° C. After be washed 3 times with 200 ul PBST solution, the plate was blocked with a blocking solution and incubated for 30 min at room temperature, and then washed with PBST solution 3 times. A compound to be tested was treated and added to the plate. Thereafter, 20 μl of diluted PARP1 (1 nM) or 20 μl of PARP2 (3 nM) solution was added into the reaction system and incubated for 1 or 2 hours. 50 ul of streptavidin-HRP mixture (1:50) was added into the plate and incubated for 30 min at room temperature. The plate was then washed with three times with PBST buffer. 100 μl of (HRP) (Chemiluminescent substrate A and substrate B (1:1)) was added into the plate, and the plate was immediately read on a microplate reader (Envision, PerkinElmer).

The mark [1] stands for this setting: Homo sapiens, HCC1937 cells, compound 30 min then 1 mM H2O2 10 min, read-out: cellular PARylation EC50.

T1 sequence (P09874 whole entry): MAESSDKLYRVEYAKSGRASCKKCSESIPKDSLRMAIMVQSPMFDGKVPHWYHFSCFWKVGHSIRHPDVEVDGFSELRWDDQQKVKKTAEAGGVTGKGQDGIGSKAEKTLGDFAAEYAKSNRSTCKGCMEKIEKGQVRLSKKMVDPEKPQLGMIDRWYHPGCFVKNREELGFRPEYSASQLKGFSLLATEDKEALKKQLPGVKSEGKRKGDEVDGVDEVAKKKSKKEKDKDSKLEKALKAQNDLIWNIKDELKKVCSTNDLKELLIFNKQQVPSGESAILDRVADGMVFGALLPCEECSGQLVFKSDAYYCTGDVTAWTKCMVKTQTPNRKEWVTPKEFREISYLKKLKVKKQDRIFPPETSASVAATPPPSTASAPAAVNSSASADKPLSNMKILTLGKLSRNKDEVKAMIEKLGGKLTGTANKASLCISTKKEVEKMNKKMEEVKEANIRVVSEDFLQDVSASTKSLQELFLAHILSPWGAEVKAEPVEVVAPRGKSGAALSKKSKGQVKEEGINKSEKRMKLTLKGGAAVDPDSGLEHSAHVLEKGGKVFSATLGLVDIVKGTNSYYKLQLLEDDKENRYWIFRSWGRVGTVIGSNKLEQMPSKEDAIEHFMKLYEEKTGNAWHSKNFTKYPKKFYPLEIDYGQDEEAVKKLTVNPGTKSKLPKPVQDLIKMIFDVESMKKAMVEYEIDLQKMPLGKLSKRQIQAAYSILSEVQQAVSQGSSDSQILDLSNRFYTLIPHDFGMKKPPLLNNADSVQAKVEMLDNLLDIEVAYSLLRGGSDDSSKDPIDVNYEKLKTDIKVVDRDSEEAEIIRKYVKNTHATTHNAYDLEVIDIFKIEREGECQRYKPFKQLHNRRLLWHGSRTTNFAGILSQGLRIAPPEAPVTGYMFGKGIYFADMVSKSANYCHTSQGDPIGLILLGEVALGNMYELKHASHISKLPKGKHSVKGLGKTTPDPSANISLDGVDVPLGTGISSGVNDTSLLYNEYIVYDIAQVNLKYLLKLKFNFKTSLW

Turning to `C[C@]1(c2nc3c(C(N)=O)cccc3[nH]2)CCCN1` [ABT-888, veliparib, reference compound], the EC50 in the experiment on HCC1937 cells (HCC1937 cells, compound 30 min then 1 mM H2O2 10 min, read-out: cellular PARylation EC50) is 1 to 100 nM.

For the compound `Cn1ncnc1[C@H]1c2n[nH]c(=O)c3cc(F)cc(c23)N[C@@H]1c1ccc(F)cc1` [BMN-673, reference compound], the EC50 in the experiment with HCC1937 cells (Homo sapiens, HCC1937, read-out: cellular PARylation EC50) was 1 to 100 nM.

With `NC(=O)c1cc(F)cc2[nH]c3c(C4CCNCC4)cnn3c12` [Example 1, 6-fluoro-3-(piperidin-4-yl)-4H-benzo[4,5]imidazo[1,2-b]pyrazole-8-carboxamide], in the experiment on HCC1937 cells (setting [1]), the EC50 fell in the range of 101 to 1000 nM. Further, the IC50 at PARP-1 lay within 1 to 100 nM.

`CCN1CCC(c2cnn3c2[nH]c2cc(F)cc(C(N)=O)c23)CC1` [Example 2, 3-(1-ethylpiperidin-4-yl)-6-fluoro-4H-benzo[4,5]imidazo[1,2-b]pyrazole-8-carboxamide]: the EC50 in the experiment with HCC1937 cells (setting [1]) was in the range of 1 to 100 nM. Also, at PARP-1, the IC50 lay within 1 to 100 nM.

`NC(=O)c1cc(F)cc2[nH]c3c(C4CCN(CCF)CC4)cnn3c12` [Example 3, 6-fluoro-3-(1-(2-fluoroethyl)piperidin-4-yl)-4H-benzo[4,5]imidazo[1,2-b]pyrazole-8-carboxamide]: in the experiment with HCC1937 cells (setting [1]), the EC50 was in the range of 1 to 100 nM. At PARP-1, the IC50 was 1 to 100 nM.

Consider `NC(=O)c1cc(F)cc2[nH]c3c(C4CCN(C5CC5)CC4)cnn3c12` [Example 4, 3-(1-cyclopropylpiperidin-4-yl)-6-fluoro-4H-benzo[4,5]imidazo[1,2-b]pyrazole-8-carboxamide], for which the EC50 in the experiment with HCC1937 cells (setting [1]) fell in the range of 1 to 100 nM. The IC50 on PARP-1 is 1 to 100 nM.

Turning to `NC(=O)c1cc(F)cc2[nH]c3c(C4CCN(CC5CC5)CC4)cnn3c12` [Example 5, 3-(1-(cyclopropylmethyl)piperidin-4-yl)-6-fluoro-4H-benzo[4,5]imidazo[1,2-b]pyrazole-8-carboxamide], the EC50 with HCC1937 cells (setting [1]) is 1 to 100 nM. For the same compound, the IC50 on PARP-1 lay within 1 to 100 nM.

Regarding `CC(C)(O)CN1CCC(c2cnn3c2[nH]c2cc(F)cc(C(N)=O)c23)CC1` [Example 6, 6-fluoro-3-(1-(2-hydroxy-2-methylpropyl)piperidin-4-yl)-4H-benzo[4,5]imidazo[1,2-b]pyrazole-8-carboxamide], the EC50 with HCC1937 cells (setting [1]) lay within 1 to 100 nM. Also, the IC50 on PARP-1 is 1 to 100 nM.

For the compound `CC(C)(F)CN1CCC(c2cnn3c2[nH]c2cc(F)cc(C(N)=O)c23)CC1` [Example 7, 6-fluoro-3-(1-(2-fluoro-2-methylpropyl)piperidin-4-yl)-4H-benzo[4,5]imidazo[1,2-b]pyrazole-8-carboxamide], the EC50 in the experiment on HCC1937 cells (setting [1]) was in the range of 1 to 100 nM. For the same compound, the IC50 at PARP-1 is 1 to 100 nM.

Take `NC(=O)c1cc(F)cc2[nH]c3c(C4CCN(C(=O)C5CC5)CC4)cnn3c12` [Example 8, 3-(1-(cyclopropylcarbonyl)piperidin-4-yl)-6-fluoro-4H-benzo[4,5]imidazo[1,2-b]pyrazole-8-carboxamide]: the EC50 in the experiment with HCC1937 cells (setting [1]) was 101 to 1000 nM. Moreover, the IC50 at PARP-1 was 1 to 100 nM.

For `CN1CCC(c2cnn3c2[nH]c2cc(F)cc(C(N)=O)c23)CC1` [Example 9, 6-fluoro-3-(1-methylpiperidin-4-yl)-4H-benzo[4,5]imidazo[1,2-b]pyrazole-8-carboxamide], the EC50 in the experiment with HCC1937 cells (setting [1]) is 1 to 100 nM. Besides, the IC50 at PARP-1 fell in the range of 1 to 100 nM.

Take `CC(C)N1CCC(c2cnn3c2[nH]c2cc(F)cc(C(N)=O)c23)CC1` [Example 10, 6-fluoro-3-(1-isopropylpiperidin-4-yl)-4H-benzo[4,5]imidazo[1,2-b]pyrazole-8-carboxamide]: the EC50 in the experiment with HCC1937 cells (setting [1]) lay within 1 to 100 nM. The IC50 at PARP-1 lay within 1 to 100 nM.

As to `NC(=O)c1cc(F)cc2[nH]c3c(C4CCN(C5COC5)CC4)cnn3c12` [Example 11, 6-fluoro-3-(1-(oxetan-3-yl)piperidin-4-yl)-4H-benzo[4,5]imidazo[1,2-b]pyrazole-8-carboxamide], the EC50 in the experiment with HCC1937 cells (setting [1]) fell in the range of 101 to 1000 nM. Moreover, the IC50 at PARP-1 lay within 1 to 100 nM.

`CCCN1CCC(c2cnn3c2[nH]c2cc(F)cc(C(N)=O)c23)CC1` [Example 12, 6-fluoro-3-(1-propylpiperidin-4-yl)-4H-benzo[4,5]imidazo[1,2-b]pyrazole-8-carboxamide]: in the experiment with HCC1937 cells (setting [1]), the EC50 lay in the range of 1 to 100 nM. Also, the 50% inhibitory concentration (IC50) at PARP-1 lay within 1 to 100 nM.

With `NCCN1CCC(c2cnn3c2[nH]c2cc(F)cc(C(N)=O)c23)CC1` [Example 13, 3-(1-(2-aminoethyl)piperidin-4-yl)-6-fluoro-4H-benzo[4,5]imidazo[1,2-b]pyrazole-8-carboxamide], the EC50 in the experiment with HCC1937 cells (setting [1]) lay within 101 to 1000 nM. Moreover, the IC50 on PARP-1 lay in the range of 1 to 100 nM.

Regarding `CN(C)CCN1CCC(c2cnn3c2[nH]c2cc(F)cc(C(N)=O)c23)CC1` [Example 14, 3-(1-(2-(dimethylamino)ethyl)piperidin-4-yl)-6-fluoro-4H-benzo[4,5]imidazo[1,2-b]pyrazole-8-carboxamide], in the experiment with HCC1937 cells (setting [1]), the EC50 fell in the range of 1 to 100 nM. Also, on PARP-1, the IC50 is 1 to 100 nM.

As for `COCCN1CCC(c2cnn3c2[nH]c2cc(F)cc(C(N)=O)c23)CC1` [Example 15, 6-fluoro-3-(1-(2-methoxyethyl)piperidin-4-yl)-4H-benzo[4,5]imidazo[1,2-b]pyrazole-8-carboxamide], the EC50 in the experiment with HCC1937 cells (setting [1]) lay within 1 to 100 nM. The IC50 at PARP-1 is 1 to 100 nM.

For `NC(=O)c1cc(F)cc2[nH]c3c(C4CCN(CCO)CC4)cnn3c12` [Example 16, 6-fluoro-3-(1-(2-hydroxyethyl)piperidin-4-yl)-4H-benzo[4,5]imidazo[1,2-b]pyrazole-8-carboxamide], the EC50 with HCC1937 cells (setting [1]) lay within 1 to 100 nM. The IC50 on PARP-1 lay in the range of 1 to 100 nM.

As for `CCN1CCCC(c2cnn3c2[nH]c2cc(F)cc(C(N)=O)c23)C1` (stereo not drawn) [Example 17, 3-(1-ethylpiperidin-3-yl)-6-fluoro-4H-benzo[4,5]imidazo[1,2-b]pyrazole-8-carboxamide], the EC50 with HCC1937 cells (setting [1]) fell in the range of 101 to 1000 nM. At PARP-1, the IC50 was 1 to 100 nM.

In the case of `CCN1CCCC(c2cnn3c2[nH]c2cc(F)cc(C(N)=O)c23)CC1` (stereo not drawn) [Example 18, 3-(1-ethylazepan-4-yl)-6-fluoro-4H-benzo[4,5]imidazo[1,2-b]pyrazole-8-carboxamide], the EC50 in the experiment on HCC1937 cells (setting [1]) lay within 1 to 100 nM. For the same compound, the half-maximal inhibitory concentration (IC50) at PARP-1 lay in the range of 1 to 100 nM.

As for `CN1CCCC(c2cnn3c2[nH]c2cc(F)cc(C(N)=O)c23)CC1` (stereo not drawn) [Example 19, 6-fluoro-3-(1-methylazepan-4-yl)-4H-benzo[4,5]imidazo[1,2-b]pyrazole-8-carboxamide], in the experiment on HCC1937 cells (setting [1]), the concentration for a half-maximal effect (EC50) was in the range of 1 to 100 nM. For the same compound, on PARP-1, the IC50 is 1 to 100 nM.

For `CN1CCC(c2cnn3c2[nH]c2cc(F)cc(C(N)=O)c23)C1` (stereo not drawn) [Example 20, 6-fluoro-3-(1-methylpyrrolidin-3-yl)-4H-benzo[4,5]imidazo[1,2-b]pyrazole-8-carboxamide], in the experiment with HCC1937 cells (setting [1]), the EC50 lay within 1 to 100 nM. In addition, the IC50 at PARP-1 lay within 1 to 100 nM.

As to `CCN1CCC(c2cnn3c2[nH]c2cc(F)cc(C(N)=O)c23)C1` (stereo not drawn) [Example 21, 3-(1-ethylpyrrolidin-3-yl)-6-fluoro-4H-benzo[4,5]imidazo[1,2-b]pyrazole-8-carboxamide], in the experiment with HCC1937 cells (setting [1]), the EC50 fell in the range of 1 to 100 nM. Besides, the IC50 on PARP-1 fell in the range of 1 to 100 nM.

Consider `CC(C)N1CCC(c2cnn3c2[nH]c2cc(F)cc(C(N)=O)c23)C1` (stereo not drawn) [Example 22, 6-fluoro-3-(1-isopropylpyrrolidin-3-yl)-4H-benzo[4,5]imidazo[1,2-b]pyrazole-8-carboxamide], for which, in the experiment on HCC1937 cells (setting [1]), the EC50 is 1 to 100 nM. Further, the concentration for half-maximal inhibition (IC50) on PARP-1 lay in the range of 1 to 100 nM.

Turning to `NC(=O)c1cc(F)cc2[nH]c3c(C4CCCN4)cnn3c12` (stereo not drawn) [Example 23, 6-fluoro-3-(pyrrolidin-2-yl)-4H-benzo[4,5]imidazo[1,2-b]pyrazole-8-carboxamide], in the experiment on HCC1937 cells (setting [1]), the EC50 lay within 1 to 100 nM. In addition, on PARP-1, the IC50 was in the range of 1 to 100 nM.

As to `CCCN1CCCC1c1cnn2c1[nH]c1cc(F)cc(C(N)=O)c12` (stereo not drawn) [Example 24, 6-fluoro-3-(1-propylpyrrolidin-2-yl)-4H-benzo[4,5]imidazo[1,2-b]pyrazole-8-carboxamide], the EC50 with HCC1937 cells (setting [1]) lay in the range of 101 to 1000 nM. For the same compound, at PARP-1, the IC50 was in the range of 1 to 100 nM.

For `CN1CCCC1c1cnn2c1[nH]c1cc(F)cc(C(N)=O)c12` (stereo not drawn) [Example 25, 6-fluoro-3-(1-methylpyrrolidin-2-yl)-4H-benzo[4,5]imidazo[1,2-b]pyrazole-8-carboxamide], in the experiment on HCC1937 cells (setting [1]), the EC50 is 1 to 100 nM. Also, on PARP-1, the IC50 lay within 1 to 100 nM.

For the compound `CCN1CCCC1c1cnn2c1[nH]c1cc(F)cc(C(N)=O)c12` (stereo not drawn) [Example 26, 3-(1-ethylpyrrolidin-2-yl)-6-fluoro-4H-benzo[4,5]imidazo[1,2-b]pyrazole-8-carboxamide], in the experiment on HCC1937 cells (setting [1]), the EC50 was 101 to 1000 nM. The IC50 on PARP-1 was 1 to 100 nM.

In the case of `CCN1CCC(c2cnn3c2[nH]c2cccc(C(N)=O)c23)CC1` [Example 27, 3-(1-ethylpiperidin-4-yl)-4H-benzo[4,5]imidazo[1,2-b]pyrazole-8-carboxamide], the EC50 with HCC1937 cells (setting [1]) lay in the range of 1 to 100 nM. At PARP-1, the IC50 fell in the range of 1 to 100 nM.

For `NC(=O)c1cccc2cn(-c3ccc([C@@H]4CCCNC4)cc3)nc12` [MK-4827, niraparib, reference compound], the EC50 in the experiment on HCC1937 cells (setting [1]) was 1 to 100 nM.
